# Data published in US12077531B2, “Imidazopyridinone compound” (KISSEI PHARMACEUTICAL CO., LTD., priority 2018, dated 2024).
# Where a name gives a salt, the structure may show the parent alone.
# Biological target: human PHD2184-418 (Homo sapiens (Human), UniProt Q9GZT9)
# Test: PHD2 inhibitory test (fluorescence polarization, binding between PHD2 and HIF-1α)
# Settings: human PHD2184-418, FITC-labeled HIF-1α556-574, 2 μM 2-oxoglutarate, 37° C. 60 minutes
# Method: Test Example 1 PHD2 Inhibitory Test
# (1) Expression and Preparation of Human PHD2184-418
# Human PHD2184-418 containing amino acid residues 184 to 418 of the protein represented by CAC42509 (GenBank accession ID) was expressed and prepared by the following method.
# An expression construct of human PHD2184-418 containing N-terminal histidine tag was introduced into pET-30a (+) vector, and the sequence was confirmed. This vector was introduced into BL21 (DE3) strain and cultured at 37° C. in LB medium containing antibiotics. After culturing, a cell lysis solution was added to the cells, and then the cells were disrupted by sonication. The disrupted suspension was centrifuged and the supernatant was purified by Ni column to give human PHD2184-418.
# Human HIF-1α556-574 (FITC-labeled HIF-1α556-574), containing N-terminal FITC-Ahx, containing amino acid residues 556 to 574 (partial peptide) of HIF-1α was used as a substrate. Using FITC-labeled HIF-1α556-574, the competitive inhibition between 2-oxoglutarate and test compounds (PHD inhibitor) was evaluated based on the change in fluorescence polarization by the following method.
# An enzyme (human PHD2184-418) and the substrate were diluted with an assay buffer (pH 7.4) containing 10 mM HEPES, 150 mM NaCl, 10 μM MnCl2-4H2O, 2 μM 2-oxoglutarate and 0.05% Tween-20. Test compounds were diluted with DMSO. Test compounds and human PHD2184-418 was added to the 384-well plate (Corning, black, opaque bottom) in advance. The reaction was started by the addition of FITC-labeled HIF-1α556-574. After incubating at 37° C. for 60 minutes, fluorescence polarization (excitation wavelength: 470 nm, fluorescence wavelength: 530 nm) was measured by PHERAstar FSX (BMG Labtech). Fluorescence polarization of each well was measured, and human PHD2 binding inhibitory activity of test compounds was calculated based on the value of test compound-free group.
# human PHD2184-418, sequence (Q9GZT9 184-418): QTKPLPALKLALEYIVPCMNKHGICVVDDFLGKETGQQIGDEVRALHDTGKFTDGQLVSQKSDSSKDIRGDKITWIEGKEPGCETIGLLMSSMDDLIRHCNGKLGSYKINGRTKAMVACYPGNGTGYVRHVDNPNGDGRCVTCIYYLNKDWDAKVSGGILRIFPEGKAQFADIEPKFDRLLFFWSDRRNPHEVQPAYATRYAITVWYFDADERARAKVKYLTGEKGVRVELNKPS
row,SMILES,IC50
1,"Cn1c(C(=O)O)cnc1CN1C[C@@H](F)[C@H](n2c(=O)n(-c3ccc(-c4ccc(C(=O)O)cc4)cc3)c3cccnc32)C1 [Example 25, 2-(((3R,4R)-3-(1-(4′-Carboxy-[1,1′-biphenyl]-4-yl)-2-oxo-1,2-dihydro-3H-imidazo[4,5-b]pyridin-3-yl)-4-fluoropyrrolidin-1-yl)methyl)-1-methyl-1H-imidazole-5-carboxylic acid]",0.11 µM
2,"O=C(O)c1ccnc(CN2CC[C@H](n3c(=O)n(-c4ccccc4)c4cccnc43)C2)c1 [Example 19, (S)-2-((3-(2-Oxo-1-phenyl-1,2-dihydro-3H-imidazo[4,5-b]pyridin-3-yl)pyrrolidin-1-yl)methyl)isonicotinic acid]",6.34 µM
3,"Cn1c(C(=O)O)cnc1CN1CC[C@H](n2c(=O)n(-c3ccc(-c4ccccc4)cc3)c3cccnc32)C1 [Example 86, (S)-2-((3-(1-([1,1′-Biphenyl]-4-yl)-2-oxo-1,2-dihydro-3H-imidazo[4,5-b]pyridin-3-yl)pyrrolidin-1-yl)methyl)-1-methyl-1H-imidazole-5-carboxylic acid]",0.27 µM
4,"Cn1c(C(=O)O)cnc1CN1CC[C@H](n2c(=O)n(-c3ccc(C(F)(F)F)cc3)c3cccnc32)C1 [Example 63, (S)-1-Methyl-2-((3-(2-oxo-1-(4-(trifluoromethyl)phenyl)-1,2-dihydro-3H-imidazo[4,5-b]pyridin-3-yl)pyrrolidin-1-yl)methyl)-1H-imidazole-5-carboxylic acid]",1.92 µM
5,"Cc1cc(-c2ccc(C(=O)O)cc2)ccc1-n1c(=O)n([C@@H]2CCN(Cc3nccn3C)C2)c2ncccc21 [Example 48, (R)-3′-Methyl-4′-(3-(1-((1-methyl-1H-imidazol-2-yl)methyl)pyrrolidin-3-yl)-2-oxo-2,3-dihydro-1H-imidazo[4,5-b]pyridin-1-yl)-[1,1′-biphenyl]-4-carboxylic acid]",0.35 µM
6,"Cn1c(C(=O)O)cnc1CN1CC[C@H](n2c(=O)n(-c3ccc(-c4ccccc4)cc3)c3ccc(C(=O)NC4CCOCC4)nc32)C1 [Example 76, (S)-2-((3-(1-([1,1′-Biphenyl]-4-yl)-2-oxo-5-((tetrahydro-2H-pyran-4-yl)carbamoyl)-1,2-dihydro-3H-imidazo[4,5-b]pyridin-3-yl)pyrrolidin-1-yl)methyl)-1-methyl-1H-imidazole-5-carboxylic acid]",9.74 µM
7,"Cn1c(C(=O)O)cnc1CN1CC[C@H](n2c(=O)n(-c3ccc4ccccc4c3)c3cccnc32)C1 [Example 22, (S)-1-Methyl-2-((3-(1-(naphthalen-2-yl)-2-oxo-1,2-dihydro-3H-imidazo[4,5-b]pyridin-3-yl)pyrrolidin-1-yl)methyl)-1H-imidazole-5-carboxylic acid]",0.3 µM
8,"Cn1c(C(=O)O)cnc1CN1CC[C@H](n2c(=O)n(-c3ccccc3)c3cccnc32)C1 [Example 87, (S)-1-Methyl-2-((3-(2-oxo-1-phenyl-1,2-dihydro-3H-imidazo[4,5-b]pyridin-3-yl)pyrrolidin-1-yl)methyl)-1H-imidazole-5-carboxylic acid]",3.99 µM
9,"Cn1c(C(=O)O)cnc1CN1CC[C@H](n2c(=O)n(-c3ccc(O)cc3)c3cccnc32)C1 [Example 73, (S)-2-((3-(1-(4-Hydroxyphenyl)-2-oxo-1,2-dihydro-3H-imidazo[4,5-b]pyridin-3-yl)pyrrolidin-1-yl)methyl)-1-methyl-1H-imidazole-5-carboxylic acid]",3 µM
10,"Cn1c(C(=O)O)cnc1CN1CC[C@H](n2c(=O)n(-c3cnc4ccccc4c3)c3cccnc32)C1 [Example 66, (S)-1-Methyl-2-((3-(2-oxo-1-(quinolin-3-yl)-1,2-dihydro-3H-imidazo[4,5-b]pyridin-3-yl)pyrrolidin-1-yl)methyl)-1H-imidazole-5-carboxylic acid]",1.17 µM
11,"C=Cc1ccc(-n2c(=O)n([C@H]3CCN(Cc4ncc(C(=O)O)n4C)C3)c3ncccc32)cc1 [Example 69, (S)-1-Methyl-2-((3-(2-oxo-1-(4-vinylphenyl)-1,2-dihydro-3H-imidazo[4,5-b]pyridin-3-yl)pyrrolidin-1-yl)methyl)-1H-imidazole-5-carboxylic acid]",0.5 µM
12,"Cn1c(C(=O)O)cnc1CN1CC[C@@H](n2c(=O)n(-c3ccc(-c4ccc(C(=O)O)cc4)nc3)c3cccnc32)C1 [Example 88, (R)-2-((3-(1-(6-(4-Carboxyphenyl)pyridin-3-yl)-2-oxo-1,2-dihydro-3H-imidazo[4,5-b]pyridin-3-yl)pyrrolidin-1-yl)methyl)-1-methyl-1H-imidazole-5-carboxylic acid]",0.27 µM
13,"Cn1ccnc1CN1CC[C@H](n2c(=O)n(-c3ccc(-c4ccccc4)cc3)c3cccnc32)C1 [Example 2, (S)-1-([1,1′-biphenyl]-4-yl)-3-(1-((1-methyl-1H-imidazol-2-yl)methyl)pyrrolidin-3-yl)-1,3-dihydro-2H-imidazo[4,5-b]pyridin-2-one]",0.79 µM
14,"COc1cnc2c(c1)n(-c1ccc(-c3ccc(C(=O)O)cc3)cc1)c(=O)n2[C@H]1CCN(Cc2ncc(C(=O)O)n2C)C1 [Example 24, (S)-2-((3-(1-(4′-Carboxy-[1,1′-biphenyl]-4-yl)-6-methoxy-2-oxo-1,2-dihydro-3H-imidazo[4,5-b]pyridin-3-yl)pyrrolidin-1-yl)methyl)-1-methyl-1H-imidazole-5-carboxylic acid]",0.11 µM
15,"Cn1c(C(=O)O)cnc1CN1CC[C@H](n2c(=O)n(-c3ccc(C(=O)NCC(=O)O)nc3)c3cccnc32)C1 [Example 78, (S)-2-((3-(1-(6-((Carboxymethyl)carbamoyl)pyridin-3-yl)-2-oxo-1,2-dihydro-3H-imidazo[4,5-b]pyridin-3-yl)pyrrolidin-1-yl)methyl)-1-methyl-1H-imidazole-5-carboxylic acid]",11 µM
16,"O=C(O)c1ccnc(CN2CC[C@H](n3c(=O)n(-c4ccc(-c5ccccc5)cc4)c4cccnc43)C2)c1 [Example 16, (S)-2-((3-(1-([1,1′-Biphenyl]-4-yl)-2-oxo-1,2-dihydro-3H-imidazo[4,5-b]pyridin-3-yl)pyrrolidin-1-yl)methyl)isonicotinic acid]",0.14 µM
17,"Cn1c(C(=O)O)cnc1CN1CC[C@H](n2c(=O)n(Cc3ccccc3)c3cccnc32)C1 [Example 71, (S)-2-((3-(1-Benzyl-2-oxo-1,2-dihydro-3H-imidazo[4,5-b]pyridin-3-yl)pyrrolidin-1-yl)methyl)-1-methyl-1H-imidazole-5-carboxylic acid]",13.9 µM
18,"Cn1ccnc1CN1CCC(n2c(=O)n(-c3ccc(-c4ccccc4)cc3)c3cccnc32)CC1 [Example 12, 1-([1,1′-Biphenyl]-4-yl)-3-(1-((1-methyl-1H-imidazol-2-yl)methyl)piperidin-4-yl)-1,3-dihydro-2H-imidazo[4,5-b]pyridin-2-one]",4.95 µM
19,"Cn1c(C(=O)O)cnc1CN1CCC(C)(n2c(=O)n(-c3ccc(-c4ccccc4)cc3)c3cccnc32)CC1 [Example 23, 2-((4-(1-([1,1′-Biphenyl]-4-yl)-2-oxo-1,2-dihydro-3H-imidazo[4,5-b]pyridin-3-yl)-4-methylpiperidin-1-yl)methyl)-1-methyl-1H-imidazole-5-carboxylic acid]",5.5 µM
20,"COC(=O)c1ccc(-c2ccc(-n3c(=O)n([C@H]4CCN(Cc5nccn5C)C4)c4ncccc43)cc2)cc1 [Example 37, Methyl (S)-4′-(3-(1-((1-methyl-1H-imidazol-2-yl)methyl)pyrrolidin-3-yl)-2-oxo-2,3-dihydro-1H-imidazo[4,5-b]pyridin-1-yl)-[1,1′-biphenyl]-4-carboxylate]",6.28 µM
21,"Cn1ccnc1CN1CC[C@H](n2c(=O)n(-c3ccc(-c4ccc(O)cc4)cc3)c3cccnc32)C1 [Example 14, (S)-1-(4′-Hydroxy-[1,1′-biphenyl]-4-yl)-3-(1-((1-methyl-1H-imidazol-2-yl)methyl)pyrrolidin-3-yl)-1,3-dihydro-2H-imidazo[4,5-b]pyridin-2-one]",0.36 µM
22,"Cc1cccnc1CN1CC[C@H](n2c(=O)n(-c3ccc(-c4ccc(F)cc4)cc3)c3cccnc32)C1 [Example 31, (S)-1-(4′-Fluoro-[1,1′-biphenyl]-4-yl)-3-(1-((3-methylpyridin-2-yl)methyl)pyrrolidin-3-yl)-1,3-dihydro-2H-imidazo[4,5-b]pyridin-2-one]",12.5 µM

# Same assay, conditions: read-out: inhibition rate at the compound concentration of 100 μM (numerals with *); compound concentration 100 μM
row,SMILES,inhibition at 100 µM
1,"Cc1cccnc1CN1CC[C@H](n2c(=O)n(-c3ccc(-c4ccccc4C(F)(F)F)cc3)c3cccnc32)C1 [Example 33, (S)-3-(1-((3-Methylpyridin-2-yl)methyl)pyrrolidin-3-yl)-1-(2′-(trifluoromethyl)-[1,1′-biphenyl]-4-yl)-1,3-dihydro-2H-imidazo[4,5-b]pyridin-2-one]",41%
2,"Cn1cnc(CN2CC[C@H](n3c(=O)n(-c4ccc(-c5ccccc5)cc4)c4cccnc43)C2)c1 [Example 6, (S)-1-([1,1′-Biphenyl]-4-yl)-3-(1-((1-methyl-1H-imidazol-4-yl)methyl)pyrrolidin-3-yl)-1,3-dihydro-2H-imidazo[4,5-b]pyridin-2-one hydrochloride]",34%
